Results reported in patent US11407719B2, “Anti-inflammatory agents” (Resverlogix Corp., priority 2009, dated 2022).

What follows are compounds tested on hIL-6 mRNA (assay: Quantification of hIL-6 mRNA). Conditions: IL-6 mRNA by real-time PCR; differentiated U937 cells, 1 h pretreatment, lipopolysaccharide stimulation 3 h; concentration ≤10 μM.
Type: cell-based, human
Design: key: Active: an active compound is one that causes a ≥20% inhibition in IL-6 mRNA at a concentration less than or equal to 10 μM
Protocol: In this example, […] in tissue culture cells was quantitated to measure the transcriptional inhibition of hIL-6 when treated with a compound of the invention.
A human leukemic monocyte lymphoma cell line (U937) was plated (3.2×10^5 cells per well) in a 96-well plate in 100 μL RPMI-1640, and differentiated for 3 days prior to the addition of the compound of interest. The cells were pretreated for 1 h with the test compound prior to stimulation with lipolysaccharide from Escherichia coli. The cells were incubated at 37° C. for 3 h before the cells were harvested. At time of harvest, the spent media was removed from the cells and the cells were rinsed in 200 μL PBS. Cell lysis solution (70 μL) was added the cells in each well and incubated for 5-10 min at room temperature, to allow for complete cell lysis and detachment. mRNA was then prepared using the “mRNA Catcher PLUS plate” (Invitrogen), according to the protocol supplied. After the last wash, as much wash buffer as possible was aspirated without allowing the wells to dry. Elution buffer (E3, 70 μL) was then added to each well. mRNA was then eluted by incubating the mRNA Catcher PLUS plate with Elution Buffer for 5 min at 68° C. and then immediately placing the plate on ice.
The eluted mRNA isolated was then used in a one-step quantitative real-time PCR reaction, using components of the Ultra Sense Kit together with Applied Biosystems primer-probe mixes. Real-time PCR data was analyzed, normalizing the Ct values for hIL-6 to an internal control, prior to determining the fold induction of each unknown sample, relative to the control.

| Compound | Inhibition of IL-6 expression |
| --- | --- |
| COc1cc(OC)c2c(=O)[nH]c(-c3cc(C)c(OCCN4CCN(C)CC4)c(C)c3)cc2c1 [3-(3,5-dimethyl-4-(2-(4-methylpiperazin-1-yl)ethoxy)phenyl)-6,8-dimethoxyisoquinolin-1(2H)-one] | Active |
| COc1cc(OC)c2c(=O)[nH]c(-c3ccc(Nc4ccncc4)cc3)nc2c1 [5,7-Dimethoxy-2-(4-(pyridin-4-ylamino)phenyl)quinazolin-4(3H)-one] | Active |
| COc1cc(OC)c2c(=O)[nH]c(-c3ccc(N4CCCN(C(C)=O)CC4)cc3)nc2c1 [2-(4-(4-Acetyl-1,4-diazepan-1-yl)phenyl)-5,7-dimethoxyquinazolin-4(3H)-one] | Active |
| COc1cc(OC)c2c(=O)[nH]c(-c3ccc(N4CCC(NC(C)C)CC4)cc3)nc2c1 [2-(4-(4-(Isopropylamino)piperidin-1-yl)phenyl)-5,7-dimethoxyquinazolin-4(3H)-one] | Active |
| COc1cc(OC)c2c(=O)[nH]c(-c3cc(C)c(OCCCN4CCCC4)c(C)c3)nc2c1 [2-(3,5-Dimethyl-4-(3-(pyrrolidin-1-yl)propoxy)phenyl)-5,7-dimethoxyquinazolin-4(3H)-one] | Active |
| COc1cc(OC)c2c(=O)[nH]c(-c3ccc(N4CCN(C(=O)c5cccnc5)CC4)cc3)nc2c1 [5,7-Dimethoxy-2-(4-(4-nicotinoylpiperazin-1-yl)phenyl)quinazolin-4(3H)-one] | Active |
| COc1cc(OC)c2c(=O)[nH]c(-c3cc(C)c(OCCN4C(=O)c5ccccc5C4=O)c(C)c3)cc2c1 [2-(2-(4-(6,8-Dimethoxy-1-oxo-1,2-dihydroisoquinolin-3-yl)-2,6-dimethylphenoxy)ethyl)isoindoline-1,3-dione] | Active |
| COc1cc(OC)c2c(=O)[nH]c(-c3ccc(CN4CCC(NC(C)C)CC4)cc3)nc2c1 [2-(4-((4-(Isopropylamino)piperidin-1-yl)methyl)phenyl)-5,7-dimethoxyquinazolin-4(3H)-one] | Active |
| COc1cc(OC)c2c(=O)[nH]c(-c3ccc(CN4CCN(C)CC4)cc3)nc2c1 [5,7-dimethoxy-2-(4-((4-methylpiperazin-1-yl)methyl)phenyl)quinazolin-4(3H)-one] | Active |
| COc1cc(OC)c2c(=O)[nH]c(-c3ccc(C4CCNCC4)cc3)nc2c1 [5,7-Dimethoxy-2-(4-(piperidin-4-yl)phenyl)quinazolin-4(3H)-one] | Active |
| CNC1CCN(c2ccc(-c3nc4cc(OC)cc(OC)c4c(=O)[nH]3)cc2)C1 (centres unmarked) [5,7-Dimethoxy-2-(4-(3-(methylamino)pyrrolidin-1-yl)phenyl)quinazolin-4(3H)-one] | Active |
| COc1cc(OC)c2c(=O)[nH]c(-c3ccc(CN4CCC(N(C(C)=O)C(C)C)CC4)cc3)nc2c1 [N-(1-(4-(5,7-Dimethoxy-4-oxo-3,4-dihydroquinazolin-2-yl)benzyl)piperidin-4-yl)-N-isopropylacetamide] | Active |
| COc1cc(OC)c2c(=O)[nH]c(-c3ccc(N4CCN(C=O)CC4)cc3)nc2c1 [4-(4-(5,7-Dimethoxy-4-oxo-3,4-dihydroquinazolin-2-yl)phenyl)piperazine-1-carbaldehyde] | Active |
| COc1cc(OC)c2c(=O)[nH]c(-c3ccc(N4C[C@@H](C)N(C(C)=O)[C@@H](C)C4)cc3)nc2n1 [2-(4-((3R,5S)-4-Acetyl-3,5-dimethylpiperazin-1-yl)phenyl)-5,7-dimethoxypyrido[2,3-d]pyrimidin-4(3H)-one] | Active |
| COc1cc(OC)c2c(=O)[nH]c(-c3ccc4[nH]nc(CO)c4c3)nc2c1 [2-(3-(Hydroxymethyl)-1H-indazol-5-yl)-5,7-dimethoxyquinazolin-4(3H)-one] | Active |
| COc1cc(OC)c2c(=O)[nH]c(-c3ccc(NS(C)(=O)=O)cc3)nc2c1 [N-(4-(5,7-Dimethoxy-4-oxo-3,4-dihydroquinazolin-2-yl)phenyl)methanesulfonamide] | Active |
| COc1cc(OC)c2c(=O)[nH]c(-c3ccc(N4CCC(=O)CC4)cc3)nc2n1 [5,7-Dimethoxy-2-(4-(4-oxopiperidin-1-yl)phenyl)pyrido[2,3-d]pyrimidin-4(3H)-one] | Active |
| COc1cc(OC)c2c(=O)[nH]c(-c3ccc(N4CCN(C(=O)c5ccncc5)CC4)cc3)nc2c1 [2-(4-(4-Isonicotinoylpiperazin-1-yl)phenyl)-5,7-dimethoxyquinazolin-4(3H)-one] | Active |
| COc1cc(OC)c2c(=O)[nH]c(-c3ccc4[nH]c(CCO)cc4c3)nc2c1 [2-(2-(2-Hydroxyethyl)-1H-indol-5-yl)-5,7-dimethoxyquinazolin-4(3H)-one] | Active |
| COc1cc(OC)c2c(=O)[nH]c(-c3ccc4[nH]c(CO)cc4c3)nc2c1 [2-(2-(Hydroxymethyl)-1H-indol-5-yl)-5,7-dimethoxyquinazolin-4(3H)-one] | Active |
| COc1cc(OC)c2c(=O)[nH]c(-c3ccc(N4CCC(NS(C)(=O)=O)CC4)cc3)nc2c1 [N-(1-(4-(5,7-Dimethoxy-4-oxo-3,4-dihydroquinazolin-2-yl)phenyl)piperidin-4-yl)methanesulfonamide] | Active |
| COc1cc(OC)c2c(=O)[nH]c(-c3ccc(OC4CCN(C(C)=O)CC4)cc3)nc2c1 [2-(4-(1-Acetylpiperidin-4-yloxy)phenyl)-5,7-dimethoxyquinazolin-4(3H)-one] | Active |
| COc1cc(OC)c2c(=O)[nH]c(-c3ccc(N4CCN(C(=O)c5cccs5)CC4)cc3)nc2c1 [5,7-Dimethoxy-2-(4-(4-(thiophene-2-carbonyl)piperazin-1-yl)phenyl)quinazolin-4(3H)-one] | Active |
| Cc1cc(-c2nc3nc(OC(C)C)cc(OC(C)C)c3c(=O)[nH]2)cc(C)c1OCCN1CCCC1 [2-(3,5-Dimethyl-4-(2-(pyrrolidin-1-yl)ethoxy)phenyl)-5,7-diisopropoxypyrido[2,3-d]pyrimidin-4(3H)-one] | Active |
| CC(C)N1CCN(c2ccc(-c3nc4cccc(Cl)c4c(=O)[nH]3)cc2)CC1 [5-Chloro-2-(4-(4-isopropylpiperazin-1-yl)phenyl)quinazolin-4(3H)-one] | Active |
| COc1cc(OC)c2c(=O)[nH]c(-c3ccc(Nc4ccc(C)cc4)cc3)nc2c1 [5,7-Dimethoxy-2-(4-(p-tolylamino)phenyl)quinazolin-4(3H)-one] | Active |
| COc1cc(OC)c2c(=O)[nH]c(-c3ccc(C4CCN(C(=O)OC(C)(C)C)CC4)cc3)nc2c1 [Tert-butyl 4-(4-(5,7-dimethoxy-4-oxo-3,4-dihydroquinazolin-2-yl)phenyl)piperidine-1-carboxylate] | Active |
| COc1cc(OC)c2c(=O)[nH]c(-c3ccc(N4CCC(N(C(C)=O)C(C)C)CC4)cc3)nc2c1 [N-(1-(4-(5,7-dimethoxy-4-oxo-3,4-dihydroquinazolin-2-yl)phenyl)piperidin-4-yl)-N-isopropylacetamide] | Active |
| COc1cc(OC)c2c(=O)[nH]c(-c3ccc(N(CCO)CCO)cc3)nc2n1 [2-(4-(bis(2-hydroxyethyl)amino)phenyl)-5,7-dimethoxypyrido[2,3-d]pyrimidin-4(3H)-one] | Active |
